Results reported in patent US5614548A, “Quaternary amine containing ether or ester lipid derivatives and therapeutic compositions” (priority 1994, dated 1997).
Where “and” joins values, the source holds several entries; their conditions need not be identical. Equal entries are not always repeated. Where two headings read alike, the source gives them in different places.

Experiments:
ChaGo cells = assay: Cytostatic activity on ChaGo cells; type: cell-based, human
Procedure: (§1) All cells were grown in Eagle's minimum essential medium supplemented with 10% fetal bovine serum with the exception of HL-60 and K562-4 cells which were grown in RPMI 1640 medium supplemented with 10% fetal bovine serum. The KB and MH1 C1 cells, from a human nasopharyngeal carcinoma and rat hepatoma, respectively, were from American Type Culture Collection. The ChaGo cells, a human lung carcinoma, was generously provided by Dr. A. H. Tashjian. The human promyeloblastic leukemia cells, K562-4 were kindly supplied by Dr. Bismarck Lozzio. HL-60 cells, a human promyelocytic leukemia, and P388 cells, a mouse leukemia, were obtained from Dr. Y.-C. Cheng. The 77 cells were put into culture by us by excising the 7777, Morris hepatoma from a rat graciously supplied by the late Dr. H. P. Morris.
(§2) Cells were transferred or removed from monolayers for counting after a one or two minute incubation with 0.02% sodium ethylenediamine tetraacetate in phosphate-buffered saline to dislodge the cells. Flasks were seeded at a density of 1×10^3 cells per cm^2 or 2×10^4 per milliliter for suspension cultures. The HL-60 and K562-4 suspension cultures were used about 24 hours after seeding. The compounds to be tested were diluted to various concentrations and added to the monolayer cultures. All of the test compounds were dissolved in 10% dimethyl sulfoxide (DMSO) at concentrations that would give a final DMSO concentration of 0.1%. Control flasks contained 0.1% DMSO. Control cell replication was followed until approximately three doublings had occurred, and then all of the treated cells were counted.

K562-4 cells = assay: Cytostatic activity on K562-4 cells; type: cell-based; conditions: Homo sapiens; K562-4 (printed X562-4)
Procedure: as §1, §2

KB cells = assay: Cytostatic activity on KB cells; type: cell-based; conditions: Homo sapiens; KB cells, after controls doubled three times; read-out: IC50 KB
Procedure: as §1, §2
(§3) The KB cells represented cells with low alkyl cleavage activity (less than the detectable level of 0.1-0.2 units per milligram protein by our assay procedure) and the 77 cells represented cells similar to normal cells with relatively high alkyl cleavage activity (1.6 units per milligram of protein). Our value for the cleavage activity of cultured 77 cells agrees well with the value of 1.4 units per milligram of protein reported by Soodsma et al, Cancer Res. 30, 309 (1970), for freshly excised 7777 Morris hepatoma tissue. In further confirmation of our assay procedure, we obtained a value of 12.6±4.1 units per milligram of protein in excised rat liver compared to 7.3 units per milligram of protein in rat liver measured by Soodsma et al.

77 cells = assay: Cytostatic activity on 77 cells; type: cell-based, rat; conditions: for IC50: 77 cells, after controls doubled three times; for 77/KB: ratio of IC50 values ± standard error of the quotient
Procedure: as §1, §2, §3

MH1 C1 cells = assay: Cytostatic activity on MH1 C1 cells; type: cell-based, rat
Procedure: as §1, §2

reverse transcriptase = assay: Reverse transcriptase activity in HIV-1 infected CEM-SS cells; type: cell-based, human immunodeficiency virus type 1 (HIV-1); conditions: for reverse transcriptase activity: in words; for activity at 0.2 µM / activity at 0.4 µM / activity at 2 µM: Human immunodeficiency virus 1, CEM-SS, read-out: RT Activity, % of Control
Procedure: (§4) By way of further background, in our assay HIV-1 syncytial plaques are seen as large, multicellular foci (10 to 25 nuclei/syncytium) that appear either brown and granular or clear. Since the number of HIV-1 syncytial plaques correlates with reverse transcriptase (RT) and p24 core antigen activity in the HIV-1 infected cell overlay fluids, the syncytial plaque assay can be used to quantify the amount of infectious virus. Reverse transcriptase activity was assayed according to a described procedure (B. J. Poeisz et al., Proc. Natl. Acad. Sci. (U.S.A.) […], 7415 (1980)). The activity of p24 core antigen induced by HIV-1 infection of CEM-SS cells was measured spectrophotometrically using the commercial Abbott EIA.
(§5) In brief, CEM-SS cells were infected with HIV-1. At various times after infection (3, 6, 8, 10, 13 days) the overlay fluids were replaced with fresh medium. Overlay fluids replaced on days 8, 10 and 13 were saved at -80° C. to measure HIV-1 plaque forming units according to our described protocol above and RT activity (described by Poiesz et al., Proc. Natl. Acad. Sci. U.S.A. 77, 7415 (1980). Results are given in Table 8 below.

[1] = system: HL60 human leukemia cell line; assay: HL60 cell growth inhibition (trypan blue, 48 h); type: cell-based; conditions: for IC50: HL60, 48 hours
Procedure: A number of the compounds disclosed herein have been tested against the HL60 human leukemia cell line to assess their cytotoxic potential. These analogs were investigated in parallel with ET-18-OMe which was used as the reference compound. The methodologies used in this investigation were the same as described in A. Noseda, M. Berens, C. Piantadosi, and E. J. Modest, Lipids 22, 878-883, 1987. In brief, HL60 cells at a concentration of […] were incubated in wells with one milliliter medium with the experimental drug in parallel with the same concentration of cells with ET-18-OMe (standard) or EtOH (control). After 48 hours of incubation the cells were counted using the trypan blue dye exclusion technique to determine the effect of the drug on cell growth. The experimental drug and ET-18-OMe were tested at the same concentrations, e.g., 10, 5, 2.5 and 1.25 μM.

HIV-1 [2] = assay: HIV-1 plaque assay, inhibitor added 60 minutes after infection; type: cell-based, human immunodeficiency virus type 1 (HIV-1)
Description: (§6) Dextran sulfate was used as a positive control. […] Plaques were counted at five days after infection.
as §4
(§7) Compound E inhibited HIV-1 plaque count 43%, 83%, and 91% at concentrations of 0.2, 0.4, and 2.0 μM, respectively, compared to untreated controls. […] In other experiments addition of 0.2, 0.4 and 2.0 μM Compound E starting sixty minutes after HIV-1 infection inhibited HIV-1 plaque formation 28%, 59% and 97% respectively, compared to untreated controls.
(§8) Next investigated were the correlations of EL analog structure with anti-HIV-l and anti-cell growth. The experimental method used six serial two-fold dilutions of EL that spanned concentrations above and below a concentration that inhibits HIV-1 plaque count, cell growth (^3 H-TdR uptake into cell DNA) or in vitro PKC activity by 50% (inhibitory concentration50 =IC50) compared to an appropriate mock treated control. Table 7 summarizes data on IC50 of phosphorus and non-phosphorus compounds for HIV-1 plaque formation and cell growth.
^1 Serial 2fold dilutions of compounds are used. HIV1 plaque formatio
is measured in CEMSS cell monolayers by having compound present starting
sixty minutes after virus infection. IC50 values for HIV1 plaque
formation are x ± one SD., N = 4. CEMSS cell growth is measured in […]

CEM-SS cells = assay: CEM-SS cell growth (3H-TdR uptake); type: cell-based; conditions: Homo sapiens, 48 hours, N = 3, read-out: Inhibitory Concentration50 CEM-SS Cell Growth
Description: as §8
formation are x ± one SD., N = 4. CEMSS cell growth is measured in
suspension cultures by treating the cells with compound for 48 hours at
37° C. and then adding 1 μCi of ^3 HTdR (S.A. = 20 Ci/mmole
for 8 hours at 37° C. to measure DNA synthesis. IC50 values
for CEMSS growth are x of a representative experiment, N = 3.

HIV-1 [3] = assay: HIV-1 plaque assay, inhibitor added 30 minutes before infection; type: cell-based, human immunodeficiency virus type 1 (HIV-1)
Description: as §6, §4, §7

HIV-1 [4] = assay: Infectious HIV-1 multiplication (plaque forming units); type: cell-based, human immunodeficiency virus type 1 (HIV-1); conditions: for infectious virus production: in words; for activity at 0.2 µM / activity at 0.4 µM / activity at 2 µM: read-out: Plaque Forming Units, % of Control
Procedure: as §5

[5] = Human immunodeficiency virus 1, 192 h, day 8
[6] = Human immunodeficiency virus 1, 240 h, day 10
[7] = Human immunodeficiency virus 1, 312 h, day 13

## CCCCCCCCCCCCCCCCOCC(C[N+](C)(C)CCO)OC(C)=O.[I-] (racemic) [XI, (±)-3-hexadecyloxy-2-acetoxy-N,N-dimethyl-N-β-hydroxyethyl-1-propyl ammonium iodide]
ChaGo cells; Homo sapiens
  IC50: 1.2 µM
K562-4 cells
  IC50: 3.5 µM
KB cells
  IC50: 0.43 ± 0.05 µM
77 cells
  IC50: 1.35 ± 0.64 µM
  77/KB: 3.1 ± 1.51

## CCCCCCCCCCCCCCCCCCOCC(O)C[N+](C)(C)CCO.[I-] (racemic) [X, (±)-3-octadecyloxy-2-hydroxy-N,N-dimethyl-N-β-hydroxyethyl-1-propyl ammonium iodide]
ChaGo cells
  IC50: 2.8 µM
ChaGo cells; Homo sapiens
  IC50: 1.7 µM
K562-4 cells
  IC50: 2.5 µM
KB cells
  IC50: 0.35 ± 0.05 µM
77 cells
  IC50: 1.33 ± 0.4 µM
  77/KB: 2.9 ± 0.96

## CCCCCCCCCCCCCCCCCCOCCC[N+](C)(C)CCO.[I-] [XIII, 3-octadecyloxy-N,N-dimethyl-N-β-hydroxyethyl-1-propyl ammonium iodide]
K562-4 cells
  IC50: 1.4 µM
KB cells
  IC50: 0.7 ± 0.08 µM
77 cells
  IC50: 2.5 ± 0.9 µM
  77/KB: 4.3 ± 1.60
MH1 C1 cells; MH1 C1 vs 77 cells
  sensitivity of MH1 C1 cells relative to 77 cells: two to three times less sensitive to growth inhibition than 77 cells
MH1 C1 cells; Rattus norvegicus, MH1C1, MH1 C1
  IC50: 2.9 µM

## CCCCCCCCCCCCCCCCCCOCC(COP(=O)([O-])OCC[N+](C)(C)C)OC (racemic) [ET-18-OMe, (±)-1-O-octadecyl-2-O-methylglycero-3-phosphocholine, reference compound]
Reverse transcriptase; 13 days
  reverse transcriptase activity: reverse transcriptase activity increases
Reverse transcriptase; 192 h, day 8
  activity at 0.2 µM: 54%
  activity at 0.4 µM: 15%
  activity at 2 µM: 6%
Reverse transcriptase; 240 h, day 10
  activity at 0.2 µM: 192%
  activity at 0.4 µM: 90%
  activity at 2 µM: 6%
Reverse transcriptase; 312 h, day 13
  activity at 0.2 µM: 94%
  activity at 0.4 µM: 161%
  activity at 2 µM: 174%
Reverse transcriptase; between 8 and 10 days
  reverse transcriptase activity: markedly inhibit infectious virus production and reverse transcriptase activity in a dose-dependent manner
[1]; ET-18-OMe reference run in parallel with the analog of the line, 2880 min, read-out: ID50, ET-18-OMe
  IC50: 1.9 µM and 2.3 µM and 2.2 µM
[1]; HL60, in words
  cytotoxic activity against HL60: shows an activity that is consistent with previous reports against the cell line tested
[1]; Homo sapiens, HL-60, 48 h, ET-18-OMe reference run in parallel with the analog of the line, read-out: ID50, ET-18-OMe
  IC50: 1.7 µM
[1]; Homo sapiens, HL-60, 48 h, read-out: ID50 (the source's name)
  IC50: 2.5 µM
HIV-1 [2]; HIV-1 plaque formation, in words
  anti-HIV-1 activity: potent anti-HIV activity
HIV-1 [2]; Human immunodeficiency virus 1, 1 h
  inhibition at 2 µM: 64%
HIV-1 [2]; Human immunodeficiency virus 1, 1 h, 0.2 μM, 60 minutes after infection
  inhibition at 0.2 µM: 0%
HIV-1 [2]; Human immunodeficiency virus 1, 1 h, 0.4 μM, 60 minutes after infection
  inhibition at 0.4 µM: 0%
HIV-1 [2]; Human immunodeficiency virus 1, CEM-SS monolayers, compound from sixty minutes after infection, N = 4, read-out: Inhibitory Concentration50 HIV-1 Plaque Formation
  IC50: 1.4 ± 0.45 µM
CEM-SS cells
  IC50: 4.4 µM
HIV-1 [3]; Human immunodeficiency virus 1, 0.2 μM, 30 minutes before infection, Table 6
  inhibition at 0.2 µM: 0%
HIV-1 [3]; Human immunodeficiency virus 1, 0.4 μM, 30 minutes before infection, Table 6, read-out: Inhibition (%)
  inhibition at 0.4 µM: 9%
HIV-1 [3]; Human immunodeficiency virus 1, 2.0 μM, 30 minutes before infection, Table 6
  inhibition at 2 µM: 45%
HIV-1 [3]; added before or after infection, in words
  antiviral activity (HIV-1 plaque formation): antiviral activity
HIV-1 [4]; 13 days
  infectious virus production: infectious virus production is still inhibited
HIV-1 [4]; [5]
  activity at 0.2 µM: 395%
  activity at 0.4 µM: 25%
  activity at 2 µM: 0%
HIV-1 [4]; [6]
  activity at 0.2 µM: 287%
  activity at 0.4 µM: 30%
  activity at 2 µM: 33%
HIV-1 [4]; [7]
  activity at 0.2 µM: 89%
  activity at 0.4 µM: 35%
  activity at 2 µM: 30%
HIV-1 [4]; between 8 and 10 days
  infectious virus production: markedly inhibit infectious virus production
